This assay addresses T1, Recombinant Human SSAO/VAP-1/AOC3 (Homo sapiens, UniProt Q16853).
T1 construct: purchased R&D systems 3957-AO
T1 sequence (Q16853 1-763): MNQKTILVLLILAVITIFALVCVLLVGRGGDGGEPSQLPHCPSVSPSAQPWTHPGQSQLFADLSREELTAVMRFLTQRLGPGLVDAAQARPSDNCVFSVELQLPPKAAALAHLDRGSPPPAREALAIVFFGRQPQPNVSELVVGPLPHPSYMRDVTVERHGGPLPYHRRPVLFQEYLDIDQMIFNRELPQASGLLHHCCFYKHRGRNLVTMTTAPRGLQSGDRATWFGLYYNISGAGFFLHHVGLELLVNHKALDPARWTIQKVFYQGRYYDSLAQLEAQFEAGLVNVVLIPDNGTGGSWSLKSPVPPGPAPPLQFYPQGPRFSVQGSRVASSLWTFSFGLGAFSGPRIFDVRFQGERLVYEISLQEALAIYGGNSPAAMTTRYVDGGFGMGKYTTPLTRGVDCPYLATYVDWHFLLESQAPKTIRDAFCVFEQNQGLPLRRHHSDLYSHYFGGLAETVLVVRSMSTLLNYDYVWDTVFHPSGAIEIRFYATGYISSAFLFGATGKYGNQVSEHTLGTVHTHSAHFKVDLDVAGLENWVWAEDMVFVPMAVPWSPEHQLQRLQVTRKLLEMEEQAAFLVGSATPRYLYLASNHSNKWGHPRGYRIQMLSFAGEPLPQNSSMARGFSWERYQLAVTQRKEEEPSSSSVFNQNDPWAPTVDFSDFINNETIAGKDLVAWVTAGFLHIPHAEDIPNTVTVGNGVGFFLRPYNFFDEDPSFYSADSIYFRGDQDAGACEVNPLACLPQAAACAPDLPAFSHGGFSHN
The assay is described as follows: Human Semicarbazide-Sensitive Amine Oxidase (SSAO) Assay. In kind it is biochemical. Particulars: recombinant enzyme, 30 minutes preincubation at 37° C., benzylamine substrate, Amplex Ultra Red/HRP fluorescence. Put shortly: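 IC50 from kinetic Amplex Ultra Red/HRP fluorescence (ex 544, em 590 nm, 30-120 min) after benzylamine addition. Beforehand, 6-10 compound dilutions were preincubated 30 min at 37 °C with recombinant human SSAO in 50 mM HEPES (enzyme working concentration 2.5 μg/ml).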

The values below come from patent US20200181104A1, “SSAO INHIBITORS AND USES THEREOF” (METACRINE, INC., priority 2018, published 2020).

pIC50: −log10 of the molar value. Where a name gives a salt, the structure may show the parent alone.

Usually pIC50 stands for −log10 of the IC50, conventionally taken in molar units. Consider `NC/C(=C\F)COc1ccc(C23CCC(C(=O)N4CC(O)(C(F)(F)F)C4)(CC2)CC3)cc1` [Compound 2.53, (E)-(4-(4-((2-(aminomethyl)-3-fluoroallyl)oxy)phenyl)bicyclo [2.2.2]octan-1-yl)(3-hydroxy-3-(trifluoromethyl)azetidin-1-yl)methanone], for which the pIC50 is at least 8.00.

On to `COCCCNC(=O)C12CCC(c3ccc(OC/C(=C/F)CN)cc3)(CC1)CC2` [Compound 2.83, (E)-4-(4-((2-(aminomethyl)-3-fluoroallyl)oxy)phenyl)-N-(3-methoxypropyl)bicyclo[2.2.2] octane-1-carboxamide], for which the pIC50 is at least 8.00.

For `CCOC1CC(NC(=O)C23CCC(c4ccc(OC/C(=C/F)CN)cc4)(CC2)CC3)C1` (stereo not drawn) [Compound 2.146, 4-(4-(((E)-2-(aminomethyl)-3-fluoroallyl)oxy)phenyl)-N-((1r,3r)-3-ethoxycyclobutyl)bicyclo[2.2.2] octane-1-carboxamide], the pIC50 was at least 8.00.

In the case of `NC/C(=C\F)COc1ccc(C23CCCC(C(=O)NC4CCOCC4)(CC2)CC3)cc1` [Compound 10.01, (E)-5-(4-((2-(Aminomethyl)-3-fluoroallyl)oxy)phenyl)-N-(tetrahydro-2H-pyran-4-yl)bicyclo[3.2.2]nonane-1-carboxamide Hydrochloride], the negative logarithm of the IC50 (pIC50) was at least 8.00.

As to `COCCNC(=O)C12CCC(c3ccc(OC/C(=C/F)CN)cc3)(CC1)CC2` [Compound 2.15, (E)-4-(4-((2-(aminomethyl)-3-fluoroallyl)oxy)phenyl)-N-(2-methoxyethyl) bicyclo[2.2.2] octane-1-carboxamide], the pIC50 was at least 8.00.

Turning to `NC/C(=C\F)COc1ccc(C23CCC(C(=O)NCC(F)(F)F)(CC2)CC3)cc1` [Compound 2.109, (E)-4-(4-((2-(aminomethyl)-3-fluoroallyl)oxy)phenyl)-N-(2,2,2-trifluoroethyl)bicyclo [2.2.2]octane-1-carboxamide], the pIC50 was at least 8.00.

As for `NC/C(=C\F)COc1ccc(C23CCC(C(=O)NCCCO)(CC2)CC3)cc1` [Compound 2.61, (E)-4-(4-((2-(aminomethyl)-3-fluoroallyl)oxy)phenyl)-N-(3-hydroxypropyl)bicyclo[2.2.2] octane-1-carboxamide], the negative-log IC50 (pIC50) is at least 8.00.

`COC(C)(C)CNC(=O)C12CCC(c3ccc(OC/C(=C/F)CN)cc3)(CC1)CC2` [Compound 2.97, (E)-4-(4-((2-(aminomethyl)-3-fluoroallyl)oxy)phenyl)-N-(2-methoxy-2-methylpropyl)bicyclo[2.2.2] octane-1-carboxamide]: the pIC50 was at least 8.00.

`COCC1(CNC(=O)C23CCC(c4ccc(OC/C(=C/F)CN)cc4)(CC2)CC3)CC1` [Compound 2.151, (E)-4-(4-((2-(aminomethyl)-3-fluoroallyl)oxy)phenyl)-N-((1-(methoxymethyl)cyclopropyl)methyl)bicyclo[2.2.2]octane-1-carboxamide]: the pIC50 was at least 8.00.

As for `NC/C(=C\F)COc1ccc(C23CCC(C(=O)N4CCCC4)(CC2)CC3)cc1` [Compound 2.25, (E)-(4-(4-((2-(aminomethyl)-3-fluoroallyl)oxy)phenyl)bicyclo [2.2.2]octan-1-yl)(pyrrolidin-1-yl)methanone], the pIC50 is at least 8.00.

Consider `COc1ccccc1CNC(=O)C12CCC(c3ccc(OC/C(=C/F)CN)cc3)(CC1)CC2` [Compound 2.128, (E)-4-(4-((2-(aminomethyl)-3-fluoroallyl)oxy)phenyl)-N-(2-methoxybenzyl)bicyclo[2.2.2] octane-1-carboxamide], for which the pIC50 was at least 8.00.

Regarding `Cc1cnc(CCNC(=O)C23CCC(c4ccc(OC/C(=C/F)CN)cc4)(CC2)CC3)o1` [Compound 2.45, (E)-4-(4-((2-(aminomethyl)-3-fluoroallyl)oxy)phenyl)-N-(2-(5-methyloxazol-2-yl)ethyl)bicyclo[2.2.2]octane-1-carboxamide], the pIC50 is at least 8.00.

As for `COc1cccc(CNC(=O)C23CCC(c4ccc(OC/C(=C/F)CN)cc4)(CC2)CC3)c1` [Compound 2.127, (E)-4-(4-((2-(aminomethyl)-3-fluoroallyl)oxy)phenyl)-N-(3-methoxybenzyl)bicyclo[2.2.2] octane-1-carboxamide], the negative logarithm of the IC50 (pIC50) is at least 8.00.

As to `CN(C)C(=O)CCNC(=O)C12CCC(c3ccc(OC/C(=C/F)CN)cc3)(CC1)CC2` [Compound 2.37, (E)-4-(4-((2-(aminomethyl)-3-fluoroallyl)oxy)phenyl)-N-(3-(dimethylamino)-3-oxopropyl)bicyclo[2.2.2]octane-1-carboxamide], the pIC50 was at least 8.00.

In the case of `CO[C@H]1C[C@H](CNC(=O)C23CCC(c4ccc(OC/C(=C/F)CN)cc4)(CC2)CC3)C1` [Compound 2.145, 4-(4-(((E)-2-(aminomethyl)-3-fluoroallyl)oxy)phenyl)-N-(((1r,3r)-3-methoxycyclobutyl)methyl) bicyclo[2.2.2]octane-1-carboxamide], the pIC50 was at least 8.00.

As for `CN(C(=O)C12CCC(c3ccc(OC/C(=C/F)CN)cc3)(CC1)CC2)C1CCOCC1` [Compound 2.16, (E)-4-(4-((2-(amino-methyl)-3-fluoroallyl)oxy)phenyl)-N-methyl-N-(tetrahydro-2H-pyran-4-yl)bicyclo[2.2.2] octane-1-carboxamide], the pIC50 was at least 8.00.

Take `NC/C(=C\F)COc1ccc(C23CCC(C(=O)NC4CCOCC4)(CC2)CC3)cc1` [Compound 2.06, (E)-4-(4-((2-(Aminomethyl)-3-fluoroallyl)oxy)phenyl)-N-(tetrahydro-2H-pyran-4-yl)bicyclo[2.2.2]octane-1-carboxamide Hydrochloride]: the pIC50 is at least 8.00.

For the molecule `NC/C(=C\F)COc1ccc(C23CCC(C(=O)NCc4ccccc4)(CC2)CC3)cc1` [Compound 2.80, (E)-4-(4-((2-(aminomethyl)-3-fluoroallyl)oxy)phenyl)-N-benzylbicyclo[2.2.2]octane-1-carboxamide], the pIC50 is at least 8.00.

As for `NC/C(=C\F)COc1ccc(C23CCC(C(=O)NC4CCC5(CCOCC5)CC4)(CC2)CC3)cc1` [Compound 2.131, (E)-4-(4-((2-(aminomethyl)-3-fluoroallyl)oxy)phenyl)-N-(3-oxaspiro[5.5]undecan-9-yl)bicyclo[2.2.2]octane-1-carboxamide], the negative-log IC50 (pIC50) was at least 8.00.

`Cc1nnc(C23CCC(c4ccc(OC/C(=C/F)CN)cc4)(CC2)CC3)o1` [Compound 11, (2E)-3-fluoro-2-({4-[4-(5-methyl(1,3,4-oxadiazol-2-yl))bicyclo[2.2.2]octyl]phenoxy}methyl)prop-2-enylamine]: the pIC50 was at least 8.00.

Regarding `NC/C(=C\F)COc1ccc(C23CCC(C(=O)NCC4(O)CCC4)(CC2)CC3)cc1` [Compound 2.96, (E)-4-(4-((2-(aminomethyl)-3-fluoroallyl)oxy)phenyl)-N-((1-hydroxycyclobutyl)methyl) bicyclo[2.2.2]octane-1-carboxamide], the pIC50 was at least 8.00.

Take `NC/C(=C\F)COc1ccc(C23CCC(C(=O)NC4CCN(CC(F)(F)F)CC4)(CC2)CC3)cc1` [Compound 2.112, (E)-4-(4-((2-(aminomethyl)-3-fluoroallyl)oxy)phenyl)-N-(1-(2,2,2-trifluoroethyl)piperidin-4-yl)bicyclo[2.2.2]octane-1-carboxamide]: the pIC50 is at least 8.00.

Take `NC/C(=C\F)COc1ccc(C23CCC(C(=O)NCCOC4CCOCC4)(CC2)CC3)cc1` [Compound 2.107]: the pIC50 is at least 8.00.

For the molecule `CC1(C)CC(NC(=O)C23CC(c4ccc(OC/C(=C/F)CN)cc4)(C2)C3)CCO1` (stereo not drawn) [Compound 3.01, (E)-3-(4-((2-(aminomethyl)-3-fluoroallyl)oxy)phenyl)-N-(2,2-dimethyltetrahydro-2H-pyran-4-yl)bicyclo[1.1.1]pentane-1-carboxamide], the pIC50 is at least 8.00.

As to `CNC(=O)C12CCC(c3ccc(OC/C(=C/F)CN)c(C)c3)(CC1)CC2` [Compound 2, (E)-4-(4-((2-(aminomethyl)-3-fluoroallyl)oxy)-3-methylphenyl)-N-methylbicyclo[2.2.2]octane-1-carboxamide], the pIC50 was at least 8.00.

With `NC/C(=C\F)COc1ccc(C23CCC(C(=O)NCC4(O)CCCCC4)(CC2)CC3)cc1` [Compound 2.101, (E)-4-(4-((2-(aminomethyl)-3-fluoroallyl)oxy)phenyl)-N-((1-hydroxycyclohexyl)methyl) bicyclo[2.2.2]octane-1-carboxamide], the pIC50 was at least 8.00.

`COCCOC1CN(C(=O)C23CCC(c4ccc(OC/C(=C/F)CN)cc4)(CC2)CC3)C1` [Compound 2.90, (E)-(4-(4-((2-(aminomethyl)-3-fluoroallyl)oxy)phenyl)bicyclo [2.2.2]octan-1-yl)(3-(2-methoxyethoxy)azetidin-1-yl)methanone]: the pIC50 was at least 8.00.
